Measured values from US12291651B2, “Liquid crystal-infused slippery anti-fouling surfaces” (priority 2021, dated 2025).

Experiments:
S. aureus QS [1] = settings: cited from earlier work
S. aureus QS [2] = assay: Sliding time of droplets of S. aureus WT culture grown with QS inhibitor on LC-infused SLIPS; type: cell-based; settings: WT S. aureus cultured 24 hours with 1 μM inhibitor; QS mutant ~7 s, WT ~27 s
Method: Characterization of Droplet Sliding Times. Characterization of the sliding times of droplets placed on the surfaces of LC-infused SLIPS was performed in the following general manner. LC-infused SLIPS were placed on a custom-made stage, and the stage was attached to the moving arm of a digital protractor using binding clips. The digital protractor was set at a specified sample angle, and a pre-determined volume of aqueous solution was placed as a droplet on the surface of the liquid-infused surface. Sliding droplets were recorded on digital video, and the time required for droplets to slide 4.0 cm along the surface was measured using a digital timer. […] For each surfactant solution, the sliding times of at least 3-5 droplets were measured and used to calculate an average sliding time with standard deviation. […]
Additional experiments were performed to determine whether LC-infused SLIPS could detect the presence of PSMs in live cultures of S. aureus and, thereby, provide methods to monitor QS in communities of this pathogen in ways analogous to the studies of P. aeruginosa above. For these experiments, a S. aureus WT strain and a QS mutant strain (lacking AgrBD, proteins critical for QS) were cultured for 24 hours and the sliding times of droplets of these cultures on LC-infused SLIPS were measured. […]

[3] = air-water interface; cited from earlier work
[4] = Contact angle and base diameter of surfactant droplets on LC-infused SLIPS; type: physicochemical; settings: 50 μL droplets: 100 mM DBTAB aqueous; 100 μM SDS in PBS

## AIP-III D4A
S. aureus QS [1]
  concentration that fully inhibits S. aureus QS: ≥ 1 nM
S. aureus QS [2]
  sliding time of culture droplets: ~7 s

## CCCCCCCCCCCC[N+](C)(C)C.[Br-] [DTAB, dodecyl-trimethylammonium bromide]
[3]
  limiting surface area: 55-63 Å^2

## CCCCCCCCCCCCOS(=O)(=O)[O-].[Na+] [SDS, Sodium dodecyl sulfate]
[4]
  droplet base diameter on LC-infused SLIPS: 4.14±0.02 mm
